Experiments:
Experiment in all cases: Post-Emergent Test III (Wheat and Barley)
APESV (windgrass) = assay type: in vivo, Apera spica-venti
Outline: (§1)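 Injury was rated visually on a 0 to 100 percent scale 21 days after treatment, relative to untreated plants, and probit analysis of multiple dose rates gave growth-reduction values. Plants at the second or third true leaf stage had been track-sprayed at 187 L/ha.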

KCHSC (kochia) = assay type: in vivo, Kochia scoparia
Outline: as §1

BRSSS = assay type: in vivo; conditions: for Visual Growth Reduction (%) 21 Days After Application, BRSSS: postemergence
Outline: as §1

HORSS = assay type: in vivo
Outline: as §1

TRZSS = assay type: in vivo
Outline: as §1

PAPRH (common poppy) = assay type: in vivo, Papaver rhoeas; conditions: for Visual Growth Reduction (%) 21 Days After Application, PAPRH: postemergence
Outline: as §1

POLCO (wild buckwheat) = assay type: in vivo, Polygonum convolvulus; conditions: for Visual Growth Reduction (%) 21 Days After Application, POLCO: postemergence
Outline: as §1

[1] = tested on: VERPE (Persian speedwell); assay type: in vivo, Veronica persica; conditions: for Visual Growth Reduction (%) 21 Days After Application, VERPE: postemergence
Outline: as §1

[2] = effective dose for growth reduction of 50 percent, probit analysis
[3] = effective dose for growth reduction of 80 percent, probit analysis
[4] = effective dose for growth reduction of 90 percent, probit analysis
[5] = effective dose for growth reduction of 10 percent, probit analysis
[6] = effective dose for growth reduction of 20 percent, probit analysis

Q: How did the pest or weed control at 35 g/ha (APESV (windgrass); Apera spica-venti, post-emergence, 504 h, 35 g ai/ha, postemergence, read-out: Visual Growth Reduction (%) 21 Days After Application, APESV) turn out when `Cc1c(-c2cc(N)c(Cl)c(C(=O)O)n2)ccc(Cl)c1F` [Compound 52] was run?
A: 60 to 74%

Q: What about the pest or weed control at 70 g/ha (APESV (windgrass); Apera spica-venti, post-emergence, 504 h, 70 g ai/ha, postemergence, read-out: Visual Growth Reduction (%) 21 Days After Application, APESV) of the same compound?
A: 75 to 84%

Q: What about the pest or weed control at 140 g/ha (APESV (windgrass); Apera spica-venti, post-emergence, 504 h, 140 g ai/ha, postemergence, read-out: Visual Growth Reduction (%) 21 Days After Application, APESV) of the same compound?
A: 85 to 94%

Q: And the “GR50, APESV” value (APESV (windgrass); [2])?
A: 23 g ai/ha

Q: What about the “GR80, APESV” value (APESV (windgrass); [3]) of the same compound?
A: 63 g ai/ha

Q: What about the “GR90, APESV” value (APESV (windgrass); [4]) of the same compound?
A: 107 g ai/ha

Q: What about the pest or weed control at 35 g/ha (KCHSC (kochia); Bassia scoparia, post-emergence, 504 h, 35 g ai/ha, postemergence, read-out: Visual Growth Reduction (%) 21 Days After Application, KCHSC) of the same compound?
A: 95 to 100%

Q: What about the pest or weed control at 70 g/ha (KCHSC (kochia); Bassia scoparia, post-emergence, 504 h, 70 g ai/ha, postemergence, read-out: Visual Growth Reduction (%) 21 Days After Application, KCHSC) of the same compound?
A: 95 to 100%

Q: And the pest or weed control at 140 g/ha (KCHSC (kochia); Bassia scoparia, post-emergence, 504 h, 140 g ai/ha, postemergence, read-out: Visual Growth Reduction (%) 21 Days After Application, KCHSC)?
A: 95 to 100%

Q: What about the “GR50, KCHSC” value (KCHSC (kochia); [2]) of the same compound?
A: 1 g ai/ha

Q: What about the “GR80, KCHSC” value (KCHSC (kochia); [3]) of the same compound?
A: 3 g ai/ha

Q: And the “GR90, KCHSC” value (KCHSC (kochia); [4])?
A: 9 g ai/ha

Q: And the “Visual Growth Reduction (%) 21 Days After Application, BRSSS” value (BRSSS; 35 g ai/ha)?
A: B (85-94)

Q: And the “Visual Growth Reduction (%) 21 Days After Application, BRSSS” value (BRSSS; 70 g ai/ha)?
A: B (85-94)

Q: And the “Visual Growth Reduction (%) 21 Days After Application, BRSSS” value (BRSSS; 140 g ai/ha)?
A: B (85-94)

Q: What about the “GR50, BRSSS” value (BRSSS; [2]) of the same compound?
A: 1 g ai/ha

Q: What about the “GR80, BRSSS” value (BRSSS; [3]) of the same compound?
A: 11 g ai/ha

Q: And the “GR90, BRSSS” value (BRSSS; [4])?
A: 41 g ai/ha

Q: What about the pest or weed control at 35 g/ha (HORSS; Hordeum vulgare, post-emergence, 504 h, 35 g ai/ha, postemergence, read-out: Visual Growth Reduction (%) 21 Days After Application, HORSS) of the same compound?
A: 60 to 74%

Q: And the pest or weed control at 70 g/ha (HORSS; Hordeum vulgare, post-emergence, 504 h, 70 g ai/ha, postemergence, read-out: Visual Growth Reduction (%) 21 Days After Application, HORSS)?
A: 75 to 84%

Q: And the pest or weed control at 140 g/ha (HORSS; Hordeum vulgare, post-emergence, 504 h, 140 g ai/ha, postemergence, read-out: Visual Growth Reduction (%) 21 Days After Application, HORSS)?
A: 85 to 94%

Q: What about the “GR10, HORSS” value (HORSS; [5]) of the same compound?
A: 1 g ai/ha

Q: What about the “GR20, HORSS” value (HORSS; [6]) of the same compound?
A: 2 g ai/ha

Q: And the pest or weed control at 35 g/ha (TRZSS; Triticum aestivum, post-emergence, 504 h, 35 g ai/ha, postemergence, read-out: Visual Growth Reduction (%) 21 Days After Application, TRZSS)?
A: 60 to 74%

Q: What about the pest or weed control at 70 g/ha (TRZSS; Triticum aestivum, post-emergence, 504 h, 70 g ai/ha, postemergence, read-out: Visual Growth Reduction (%) 21 Days After Application, TRZSS) of the same compound?
A: 75 to 84%

Q: And the pest or weed control at 140 g/ha (TRZSS; Triticum aestivum, post-emergence, 504 h, 140 g ai/ha, postemergence, read-out: Visual Growth Reduction (%) 21 Days After Application, TRZSS)?
A: 75 to 84%

Q: What about the “GR10, TRZSS” value (TRZSS; [5]) of the same compound?
A: 1 g ai/ha

Q: What about the “GR20, TRZSS” value (TRZSS; [6]) of the same compound?
A: 1 g ai/ha

Q: What about the “Visual Growth Reduction (%) 21 Days After Application, PAPRH” value (PAPRH (common poppy); 35 g ai/ha) of the same compound?
A: D (60-74)

Q: What about the “Visual Growth Reduction (%) 21 Days After Application, PAPRH” value (PAPRH (common poppy); 70 g ai/ha) of the same compound?
A: D (60-74)

Q: What about the “Visual Growth Reduction (%) 21 Days After Application, PAPRH” value (PAPRH (common poppy); 140 g ai/ha) of the same compound?
A: C (75-84)

Q: And the “GR50, PAPRH” value (PAPRH (common poppy); [2])?
A: 4 g ai/ha

Q: And the “GR80, PAPRH” value (PAPRH (common poppy); [3])?
A: >140 g ai/ha

Q: What about the “GR90, PAPRH” value (PAPRH (common poppy); [4]) of the same compound?
A: >140 g ai/ha

Q: What about the “Visual Growth Reduction (%) 21 Days After Application, POLCO” value (POLCO (wild buckwheat); 35 g ai/ha) of the same compound?
A: D (60-74)

Q: And the “Visual Growth Reduction (%) 21 Days After Application, POLCO” value (POLCO (wild buckwheat); 70 g ai/ha)?
A: C (75-84)

Q: What about the “Visual Growth Reduction (%) 21 Days After Application, POLCO” value (POLCO (wild buckwheat); 140 g ai/ha) of the same compound?
A: A (95-100)

Q: What about the “GR50, POLCO” value (POLCO (wild buckwheat); [2]) of the same compound?
A: 10 g ai/ha

Q: What about the “GR80, POLCO” value (POLCO (wild buckwheat); [3]) of the same compound?
A: 41 g ai/ha

Q: And the “GR90, POLCO” value (POLCO (wild buckwheat); [4])?
A: 84 g ai/ha

Q: And the “Visual Growth Reduction (%) 21 Days After Application, VERPE” value ([1]; 35 g ai/ha)?
A: G (0-29)

Q: And the “Visual Growth Reduction (%) 21 Days After Application, VERPE” value ([1]; 70 g ai/ha)?
A: G (0-29)

Q: What about the “Visual Growth Reduction (%) 21 Days After Application, VERPE” value ([1]; 140 g ai/ha) of the same compound?
A: E (45-59)

Q: And the “GR50, VERPE” value [1, 2]?
A: >140 g ai/ha

Q: And the “GR80, VERPE” value [1, 3]?
A: >140 g ai/ha

Q: And the “GR90, VERPE” value [1, 4]?
A: >140 g ai/ha
